Assay results taken from US20110117054A1, “USE OF RIBAVIRIN IN BLOOD COAGULATION DISORDER” (National University Corporation Nagoya University, priority 2007, published 2011).

Test system: HCV
Experiment: HCV eradication in HCV positive hemophilia patients (Working Example 6)
Format: in vivo, hepatitis C virus
Details: Patient No. 6, interferon-α-2b alone prior to administration in this example
Procedure: In Table 5, the severity of hemophilia was rated as mild when the level of coagulation factors exceeded 5%, moderate when this level was from 1 to 5%, and severe when this level was below 1%. The HCV-RNA level was measured with an Amplicor HCV Assay, version 2 (Roche) at the start of administration. The genotype of the HCV virus was determined from the base sequence of the 5′-UTR region thereof. HCV eradication was indicated as “yes” when HCV-RNA viruses were not detected for 24 weeks following the end of administration. The HIV infection state was determined by the HIV antibodies using a particle agglutination assay kit (Fujirebio Inc.).

In the case of interferon-α-2b, the HCV eradication is reported as “not eradicated”.
